These results are taken from BindingDB's records for doi:10.1021/acs.jmedchem.3c00203 (University of Oxford, 2023).

A value given as a limit tells only on which side of the number the result lay.

In assay [1] the target is T1, Isocitrate dehydrogenase [NADP] cytoplasmic (Homo sapiens, UniProt O75874). In words: Inhibition of recombinant wildtype IDH1 (unknown origin) expressed in Escherichia coli BL21(DE3) pLysS cells using DL-isocitrste as substrate assessed as DL-isocitrate conversion to 2OG incubated for 60 mins in presence of NADPH by spectrophotometric analysis.
Target sequence in this assay (O75874 whole entry): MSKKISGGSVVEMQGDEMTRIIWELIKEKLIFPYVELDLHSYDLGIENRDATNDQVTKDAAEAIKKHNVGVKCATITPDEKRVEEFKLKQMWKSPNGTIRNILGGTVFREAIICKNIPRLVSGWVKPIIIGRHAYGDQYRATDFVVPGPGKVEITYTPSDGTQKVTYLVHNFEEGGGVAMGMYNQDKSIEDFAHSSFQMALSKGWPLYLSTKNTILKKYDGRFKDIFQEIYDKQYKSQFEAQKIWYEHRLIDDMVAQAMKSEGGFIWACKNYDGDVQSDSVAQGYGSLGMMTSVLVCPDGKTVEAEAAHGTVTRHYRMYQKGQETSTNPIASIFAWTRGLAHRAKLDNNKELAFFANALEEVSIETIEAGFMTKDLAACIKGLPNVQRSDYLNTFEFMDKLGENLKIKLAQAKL
In assay [2] the target is T1, Isocitrate dehydrogenase [NADP] cytoplasmic. In words: Binding affinity to human recombinant IDH1 R132H mutant expressed in Escherichia coli BL21(DE3) pLysS cells assessed as dissociation constant by non-denaturing mass spectroscopic analysis.
Target sequence in this assay (O75874 2-414 R132H limits assumed): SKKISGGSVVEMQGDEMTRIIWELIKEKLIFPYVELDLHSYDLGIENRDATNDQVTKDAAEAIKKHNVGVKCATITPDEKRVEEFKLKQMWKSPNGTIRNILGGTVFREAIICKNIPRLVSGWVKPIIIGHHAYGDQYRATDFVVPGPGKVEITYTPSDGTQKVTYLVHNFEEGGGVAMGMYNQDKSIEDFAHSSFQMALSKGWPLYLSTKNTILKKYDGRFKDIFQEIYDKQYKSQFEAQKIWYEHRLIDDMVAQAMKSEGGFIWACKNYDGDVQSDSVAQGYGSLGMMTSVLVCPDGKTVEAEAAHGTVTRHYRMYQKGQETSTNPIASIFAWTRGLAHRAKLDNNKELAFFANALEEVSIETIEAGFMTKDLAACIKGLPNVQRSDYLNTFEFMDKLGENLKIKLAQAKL
Assay [3] shares this target. In words: Binding affinity to human recombinant IDH1 expressed in Escherichia coli BL21(DE3) pLysS cells assessed as dissociation constant by non-denaturing mass spectroscopic analysis.
Target sequence in this assay (O75874 whole entry): as the sequence (O75874 whole entry) above
Assay [4] shares this target. In words: Binding affinity to recombinant IDH1 R132H mutant (unknown origin) expressed in Escherichia coli BL21(DE3) pLysS cells assessed as dissociation constant by ITC assay. On the technique in general: Isothermal titration calorimetry measures the heat released or taken up as one component is titrated into another.
Target sequence in this assay (O75874 2-414 R132H limits assumed): as the sequence (O75874 2-414 R132H limits assumed) above
The target is the same in assay [5]. In words: Binding affinity to recombinant IDH1 R132H mutant (unknown origin) expressed in Escherichia coli BL21(DE3) pLysS cells assessed as dissociation constant by NMR analysis.
Target sequence in this assay (O75874 2-414 R132H limits assumed): as above
Assay [6] shares this target. In words: Binding affinity to recombinant wildtype IDH1 (unknown origin) expressed in Escherichia coli BL21(DE3) pLysS cells assessed as dissociation constant by ITC assay.
Target sequence in this assay (O75874 whole entry): as the sequence (O75874 whole entry) above
Assay [7] shares this target. In words: Inhibition of recombinant IDH1 R132H mutant (unknown origin) expressed in Escherichia coli BL21(DE3) pLysS cells using 2OG as substrate assessed as 2OG conversion to 2HG incubated for 60 mins in presence of NADPH by spectrophotometric analysis.
Target sequence in this assay (O75874 2-414 R132H limits assumed): as the sequence (O75874 2-414 R132H limits assumed) above
Assay [8] shares this target. In words: Binding affinity to recombinant wildtype IDH1 (unknown origin) expressed in Escherichia coli BL21(DE3) pLysS cells assessed as dissociation constant by NMR analysis.
Target sequence in this assay (O75874 whole entry): as the sequence (O75874 whole entry) above

Broadly, the IC50 is the concentration needed to halve the response being measured. In general, Kd refers to the free concentration of one partner at which half of the binding sites on the other are occupied at equilibrium, for simple one-to-one binding.

For the compound `CC(=O)N1CCN(Cc2ccc([C@H](C)Nc3nccc(N4C(=O)OC[C@@H]4C(C)C)n3)cc2)CC1` [US8957068, 556], the IC50 came to 0.341 µM in assay [1] and 0.0082 µM in assay [7]. The Kd is 142 µM in assay [2]; 140 µM in assay [3]; > 400 µM in assay [4]; 1.1 µM in assay [5]; > 400 µM in assay [6]; 1.7 µM in assay [8].
